The values that follow come from patent publication US20040204497A1, “Metabolic enhancing properties of octopamine salts” (Creative Compounds, LLC, priority 2003, published 2004).

Counter-ions that a name gives are not always drawn.

Data set [1] can be described thus: Stability of octopamine forms exposed to the atmosphere (in-house results). The conditions noted are these: normal atmospheric conditions; according to our calculations. In kind it is physicochemical. The source says:
First, we have discovered that octopamine in the base form is very unstable and oxidizes rapidly when readily exposed to the atmosphere.
For instance, although the half-life of octopamine base is roughly 6 months, the half-life for octopamine salts of this invention such as octopamine HCl is at least 5 years according to our calculations. To be used commercially for metabolic enhancement, it is of extreme importance that the octopamine form used has a shelf life long enough so that the octopamine remains filly efficacious for at least one year and preferably two years.

Data set [2] in a line: Example 1: weight loss in subjects given capsules, no change of diet or exercise. In kind it is in vivo, human. Also on record: average weight loss: unit not given here. The following applies: 6 mg/kg per day calculated as octopamine base; for average weight loss: capsules, divided dosages. The protocol: Octopamine base, octopamine HCl, octopamine malate, and octopamine ethylcarbonate were prepared and given as capsules in divided dosages at 6 mg/kg per day calculated as octopamine base.

The nature of data set [3]: Example 2: change in percent bodyfat and lean body mass, perceived energy and mental outlook in subjects. In kind it is in vivo, human. The following applies: for Change Percent Bodyfat / Change Percent Lean Body Mass: 6 mg/kg per day calculated as octopamine base; for Perceived Energy / Perceived Mental Outlook and Focus: subjective, scale of 1-10, 6 mg/kg per day. As for the experimental part: Octopamine HCl was prepared and given as capsules in divided dosages at 6 mg/kg per day calculated as octopamine base. […] Subjective results are also shown regarding perceived energy and mental outlook and focus (scale of 1-10): […]

A short description of data set [4]: Metabolic potency, bioavailability and tolerability of octopamine salts versus base in users. It is filed as in vivo, human. The source says:
Finally, we have discovered that the base form of octopamine has significant bioavailability problems. […] There is thus great need for an improvement to this technology which allows octopamine to be a commercially viable option for metabolic enhancement.
We have found the octopamine salts of this invention are up to four times more efficient at affecting specific metabolic parameters than octopamine base.
The octopamine salts of this invention can be commercially used in various ways as metabolic enhancers. For instance, we have found usefulness with these compounds as weight loss agents. […] Even in high dosages, the user feels no noticeable negative effect on his general feeling or overall state of well-being. Furthermore, these octopamine salts specifically enhance the loss of adipose tissue while preserving lean body mass such as muscle tissue. A significant problem for anyone trying to lose unwanted adipose tissue is the concurrent loss of lean body mass. Lean body mass includes tissues such as muscle, kidney, liver, heart and bone. For a person to feel healthy and strong, these tissues must also be healthy and strong. […]
Human dosaging for the octopamine salts of this invention is most preferable in the range of 5-15 mg/kg of bodyweight calculated as base octopamine. […]

The half-life is the time in which the quantity being followed falls by half. Turning to `NCC(O)c1ccc(O)cc1` (stereo not drawn) [Octopamine HCl], the half-life in data set [1] was no less than 1830 days. Moreover, the average weight loss in data set [2] (Week 1, HCl, 6 mg/kg/day) is 2; in data set [2] (Week 4, HCl, 6 mg/kg/day) it was 6; in data set [2] (Week 8, HCl, 6 mg/kg/day), 9. The figures for the “Change Percent Bodyfat” value in data set [3] (Week 1), in data set [3] (Week 4) and in data set [3] (Week 8) were “−.5%”, −2% and −4%, respectively. For the same compound, the “Change Percent Lean Body Mass” value in data set [3] (Week 1) is given as 0%; in data set [3] (Week 4), “+.3%”; in data set [3] (Week 8) it was “+1%”. Moreover, the “Perceived Energy” value is reported as 6 in data set [3] (Week 1), 8 in data set [3] (Week 4) and 8 in data set [3] (Week 8). The “Perceived Mental Outlook and Focus” value in data set [3] (Week 1) is reported as 7; in data set [3] (Week 4) it was 7; in data set [3] (Week 8), 9.

On to Octopamine malate, for which the average weight loss in data set [2] (Week 1) is on record as 1; in data set [2] (Week 4) it was 5; in data set [2] (Week 8) it was 10.

Octopamine ethylcarbonate: the average weight loss in data set [2] (Week 1) is given as 2; in data set [2] (Week 4), 6; in data set [2] (Week 8) it was 10.

For `NCC(O)c1ccc(O)cc1` (stereo not drawn) [Octopamine base, Octopamine], in data set [4], the “minimum effective dosage relative to the octopamine salts of the invention” value was “nearly four times”. In data set [2] (up to Week 8), the “weight loss (result in words)” value is “neither the octopamine base nor the control resulted in appreciable or significant weight loss”. Moreover, the average weight loss in data set [2] (Week 1, 6 mg/kg/day) is 0; in data set [2] (Week 4, 6 mg/kg/day), 1; in data set [2] (Week 8, 6 mg/kg/day), 2.
